Experimental findings from US20090325954A1, “2-BENZIMIDAZOLYL-6-MORPHOLINO-4-PHENYLPYRIMIDINE DERIVATIVES AS PI3K AND MTOR INHIBITORS FOR THE TREATMENT OF PROLIFERATIVE DISORDERS” (priority 2006, published 2009) are described below.

The target of one assay is T1, p110α Type Ia human PI3K (Homo sapiens, UniProt P42336).
T1 construct: full length DNA of each of the p110α, p110β and […] Type Ia human PI3K p110 isoforms; 6-His; made in house
Description: In vitro PI3K enzyme assay (AlphaScreen), Test (a). It is filed as biochemical. Particulars: read-out: IC50 versus p110α Type Ia human PI3K. An excerpt:
The assay used AlphaScreen technology (Gray et al., Analytical Biochemistry, 2003, 313: 234-245) to determine the ability of test compounds to inhibit phosphorylation by recombinant Type I PI3K enzymes of the lipid PI(4,5)P2.
DNA fragments encoding human PI3K catalytic and regulatory subunits were isolated from cDNA libraries using standard molecular biology and PCR cloning techniques. The selected DNA fragments were used to generate baculovirus expression vectors. In particular, full length DNA of each of the p110α, p110β and […] Type Ia human PI3K p110 isoforms (EMBL Accession Nos. HSU79143, S67334, Y10055 for p110a, p110β and p110δ respectively) were sub-cloned into a pDEST10 vector (Invitrogen Limited, Fountain Drive, Paisley, UK). The vector is a Gateway-adapted version of Fastbac1 containing a 6-His epitope tag. […]
Biotinylated-DiC8-PI(3,4,5)P3 (50 nM; Cell Signals Inc., Catalogue No. 107), recombinant purified GST-Grp1 PH protein (2.5 nM) and AlphaScreen Anti-GST donor and acceptor beads (100 ng; Packard Bioscience Limited, Station Road, Pangbourne, Berkshire, UK, Catalogue No. 6760603M) were added and the assay plates were left for about 5 to 20 hours at room temperature in the dark. The resultant signals arising from laser light excitation at […] were read using a Packard AlphaQuest instrument. […]
A general note: In Alpha technology, singlet oxygen from a donor bead excites a nearby acceptor bead.

The test system of assay [1] is phosphorylation of Serine 473 in Akt. As to the kind of experiment: In vitro phospho-Ser473 Akt assay in MDA-MB-468 cells, Test (c). Format: cell-based. Conditions: Homo sapiens, read-out: IC50, inhibition of phosphorylation of Serine 473 in Akt. The procedure: This assay determines the ability of test compounds to inhibit phosphorylation of Serine 473 in Akt as assessed using Acumen Explorer technology (TTP LabTech Limited, Royston, Herts, SG8 6EE, UK), a plate reader that can be used to rapidly quantitate features of images generated by laser-scanning.
A MDA-MB-468 human breast adenocarcinoma cell line (LGC Promochem, Teddington, Middlesex, UK, Catalogue No. HTB-132) was routinely maintained at 37° C. with 5% CO2 up to a confluency of 70-90% in DMEM containing 10% FCS and 1% L-glutamine.
For the assay, the cells were detached from the culture flask using ‘Accutase’ (Innovative Cell Technologies Inc., San Diego, Calif., USA; Catalogue No. AT104) using standard tissue culture methods and resuspended in media to give 5.5×10^4 cells per ml. Aliquots (90 μl) were seeded into each of the inner 60 wells of a black ‘Costar’ 96-well plate (Corning Inc., NY, USA; Catalogue No. 3904) to give a density of ˜5000 cells per well. Aliquots (90 μl) of culture media were placed in the outer wells to prevent edge effects. [An alternative cell handling procedure involved the maintenance of the cells in a ‘SelecT’ robotic device (The Automation Partnership, Royston, Herts SG8 5WY, UK). Cells were resuspended in media to give 5×10^4 cells per ml. Aliquots (100 μl) were seeded into the wells of a black ‘Costar’ 96-well plate.] […]

SMILES strings stand for the structures.

T1 sequence (P42336 whole entry, canonical isoform): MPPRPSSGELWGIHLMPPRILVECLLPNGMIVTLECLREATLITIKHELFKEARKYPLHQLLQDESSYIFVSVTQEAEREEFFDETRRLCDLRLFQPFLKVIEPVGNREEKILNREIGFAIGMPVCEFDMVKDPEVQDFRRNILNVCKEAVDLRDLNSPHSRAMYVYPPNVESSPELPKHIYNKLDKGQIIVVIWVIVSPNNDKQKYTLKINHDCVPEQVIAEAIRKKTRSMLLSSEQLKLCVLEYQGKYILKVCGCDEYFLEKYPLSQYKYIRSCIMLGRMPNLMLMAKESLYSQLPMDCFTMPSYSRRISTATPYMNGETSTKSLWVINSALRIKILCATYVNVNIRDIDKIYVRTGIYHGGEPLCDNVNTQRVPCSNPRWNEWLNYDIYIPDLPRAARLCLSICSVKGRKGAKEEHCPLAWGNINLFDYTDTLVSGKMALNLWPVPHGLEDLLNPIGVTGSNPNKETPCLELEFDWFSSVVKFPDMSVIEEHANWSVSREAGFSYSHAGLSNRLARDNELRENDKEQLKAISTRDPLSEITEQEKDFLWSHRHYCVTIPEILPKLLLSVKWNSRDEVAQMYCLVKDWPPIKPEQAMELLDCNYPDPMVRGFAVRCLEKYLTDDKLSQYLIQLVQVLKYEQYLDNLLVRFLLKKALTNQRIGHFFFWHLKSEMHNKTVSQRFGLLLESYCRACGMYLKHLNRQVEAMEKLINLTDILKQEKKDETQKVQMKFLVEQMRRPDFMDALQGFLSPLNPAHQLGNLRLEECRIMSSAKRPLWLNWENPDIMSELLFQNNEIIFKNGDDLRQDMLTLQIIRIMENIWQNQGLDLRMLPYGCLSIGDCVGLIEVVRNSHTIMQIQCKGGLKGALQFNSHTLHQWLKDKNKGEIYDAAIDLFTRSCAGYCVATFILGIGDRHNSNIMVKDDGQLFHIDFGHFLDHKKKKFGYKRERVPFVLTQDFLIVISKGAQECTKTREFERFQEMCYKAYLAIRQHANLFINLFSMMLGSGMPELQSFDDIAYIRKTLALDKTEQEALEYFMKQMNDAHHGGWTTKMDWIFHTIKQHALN
T1 sequence (P27986 whole entry partner, canonical isoform): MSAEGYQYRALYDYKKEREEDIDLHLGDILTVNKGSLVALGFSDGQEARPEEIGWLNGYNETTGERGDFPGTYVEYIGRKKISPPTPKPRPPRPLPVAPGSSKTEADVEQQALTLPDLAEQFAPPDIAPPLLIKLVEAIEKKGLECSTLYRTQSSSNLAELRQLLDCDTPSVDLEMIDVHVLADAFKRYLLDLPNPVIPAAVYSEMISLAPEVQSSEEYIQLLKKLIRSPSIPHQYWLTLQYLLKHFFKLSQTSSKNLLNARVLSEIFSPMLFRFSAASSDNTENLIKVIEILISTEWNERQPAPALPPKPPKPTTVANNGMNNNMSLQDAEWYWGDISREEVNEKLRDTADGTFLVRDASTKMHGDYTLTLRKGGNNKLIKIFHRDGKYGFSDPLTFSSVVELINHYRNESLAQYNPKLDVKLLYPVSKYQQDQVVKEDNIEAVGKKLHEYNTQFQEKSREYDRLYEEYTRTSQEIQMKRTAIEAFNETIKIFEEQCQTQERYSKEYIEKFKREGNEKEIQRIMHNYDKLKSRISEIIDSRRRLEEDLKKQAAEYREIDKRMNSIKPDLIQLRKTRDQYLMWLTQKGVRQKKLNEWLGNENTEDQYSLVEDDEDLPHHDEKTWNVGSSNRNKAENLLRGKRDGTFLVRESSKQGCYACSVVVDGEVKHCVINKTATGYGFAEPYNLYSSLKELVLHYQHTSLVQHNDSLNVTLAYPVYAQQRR

As to `CN(C)CCNC(=O)c1ccc(-c2cc(N3CCOCC3)nc(-n3c(C(F)F)nc4ccccc43)n2)cc1` [Example 9, 2-(2-difluoromethylbenzimidazol-1-yl)-4-{4-[N-(2-dimethylaminoethyl)carbamoyl]phenyl}-6-morpholinopyrimidine], the IC50 (as a rule, the concentration that inhibits the measured activity by half) on p110α Type Ia human PI3K is around 300 nM; in assay [1] it was around 100 nM.

Consider `CNCC(=O)Nc1ccc(-c2cc(N3CCOCC3)nc(-n3c(C(F)F)nc4ccccc43)n2)cc1` [Example 5, 2-(2-difluoromethylbenzimidazol-1-yl)-6-morpholino-4-(4-sarcosylaminophenyl)pyrimidine], for which the results for the IC50 (on p110α Type Ia human PI3K; in assay [1]) were around 300 nM and around 20 nM, respectively.
